Experimental data: patent US7335817B2, “Canola line 45H25” (Pioneer Hi-Bred International, Inc., priority 2005, dated 2008)
Entries after “also recorded” stand apart in the source; their conditions may differ.

Test system: Canola Variety 45H25
Test: Herbicide resistance of canola variety 45H25 at standard recommended application rates
Type: in vivo, Brassica napus
Details: for Herbicide resistance (Description): response of variety 45H25 to the herbicide, in words; for Herbicide resistance rating (Mean): scale 0 = not tested, 1 = resistant, variety 45H25
Source text: When preparing the detailed phenotypic information that follows, plants of the new 45H25 variety were observed while growing using conventional agronomic practices. For comparative purposes canola plants of four publicly available canola lines were similarly grown in a three-replication experiment. Based on observations recorded on various morphological traits for the variety 45H25 and comparative check cultivars, variety 45H25 can be described as follow: […]

Structure (SMILES): CP(=O)(O)CCC(N)C(=O)O (centres unmarked) [Glufosinate]
- Herbicide resistance (Description): susceptible
- Herbicide resistance rating (Mean) (5 = tolerant, 9 = susceptible): 9.00

Structure (SMILES): O=C(O)CNCP(=O)(O)O [Glyphosate]
- Herbicide resistance (Description): resistant
- Herbicide resistance (Description) (listed as glyphosate): resistance; also recorded: resistant
- Herbicide resistance rating (Mean) (2 = tolerant, 3 = susceptible): 1.00
